Data on two compounds can be found in patent US20210154202A1, “SYNTHESIS OF DENTIMOL, AN ANTIGLAUCOMA DRUG” (Virginia Commonwealth University, priority 2018, published 2021).

For one series, the system named is NIH 3T3 fibroblasts. In words: Cytotoxicity study, WST-1 cell proliferation assay. It is filed as cell-based. To be noted: no concentration stated. As to the method: Cytotoxicity study. NIH 3T3 fibroblasts were seeded in a 96-well plate at 5000 cells per well and allowed 24 h to attach. The cells were maintained in DMEM medium supplemented with 10% serum, streptomycin […] and penicillin (100 U/mL) at 37° C. in 95% air/5% CO2. Upon the removal of the medium, the cells were incubated with fresh DMEM medium (control) or fresh medium containing various amounts of OTM, OTM-PEG, or DenTimol (n=8) for 24 h. Cell viability relative to untreated cells was determined using the WST-1 cell proliferation assay.

The nature of series [1]: Water solubility / hydrophobicity as stated. It is filed as physicochemical.
In series [2] the test system is rats (cornea, ciliary body, retina). In words: In vivo safety assessment, ocular tolerance and histology after once-daily dosing for seven days. Here is the method: In vivo safety assessment. To assess in vivo ocular tolerance, rats received OTM, timolol, or DenTimol (2×5 μL, 0.5% w/v OTM equivalent) in the right eye once daily for seven days. At the conclusion of the experiment, the rats were euthanized. The eyes were enucleated and immediately fixed in Davidson's solution, and 5 μm sections prepared for histological evaluation.

The nature of series [3]: Ex vivo corneal permeation study, Franz diffusion cells. The note with it: rabbit cornea, 37° C., 3.7 mM OTM equivalent donor. The class given is in vitro ADME. Here is the method:
Ex vivo corneal permeation study. Corneal permeability was determined using Franz diffusion cells (PermeGear, Hellertown, Pa.). Corneas were extracted from fresh rabbit eyes and placed immediately into diffusion cells with the endothelial surface facing the acceptor chamber and the epithelial surface facing the donor chamber. The acceptor chamber was filled with 5 mL of glutathione buffered Ringer's solution, and the donor chamber with 100 μL of a solution containing 1 mg of DenTimol (3.7 mM OTM equivalent). For comparison, permeation of OTM and OTM-PEG across the cornea were also tested at the same OTM equivalent concentration. The diffusion cells were placed in a water bath at 37° C. At various time points, 250 μL samples were withdrawn from the acceptor chamber, and drug concentrations were measured using the reverse phase HPLC system.

The conditions of series [4]: delivered as a topical solution; cited from earlier work.

For `C1CN(c2nsnc2OC[C@@H]2CO2)CCO1` [OTM, (S)-4-[4-(Oxiranylmethoxy)-1,2,5-thiadiazol-3-yl]morpholine], the “Toxicity of OTM (stated)” value with NIH 3T3 fibroblasts is “non-toxic”. Also, the “Water solubility / hydrophobicity” value in series [1] was “highly hydrophobic”. Besides, the “Histology (H&E) of cornea, ciliary body and retina after repeated dosing” value in series [2] is “did not alter the structures of the cornea, ciliary body, and retina”.

With `CC(C)(C)NC[C@H](O)COc1nsnc1N1CCOCC1` [timolol], the “Drug permeated through the cornea in 4 h” value in series [3] came out at 3.5%. Also, in series [4], the “Period after a dose within therapeutic concentration window in the anterior chamber” value was 4 to 5 h and the “Share of total drug reaching the target organ with each dose” value is “about 5%”.
